The record followed here is BindingDB's records for patent US10196390 (Nimbus Lakshmi, Inc., 2019).

As usually defined, the Ki is the equilibrium dissociation constant of an inhibitor or competing ligand from its target. A higher Ki goes with weaker binding.

The test deals with Tyrosine-protein kinase JAK2 (Homo sapiens, UniProt O60674).
Sequence of Tyrosine-protein kinase JAK2 (O60674 whole entry): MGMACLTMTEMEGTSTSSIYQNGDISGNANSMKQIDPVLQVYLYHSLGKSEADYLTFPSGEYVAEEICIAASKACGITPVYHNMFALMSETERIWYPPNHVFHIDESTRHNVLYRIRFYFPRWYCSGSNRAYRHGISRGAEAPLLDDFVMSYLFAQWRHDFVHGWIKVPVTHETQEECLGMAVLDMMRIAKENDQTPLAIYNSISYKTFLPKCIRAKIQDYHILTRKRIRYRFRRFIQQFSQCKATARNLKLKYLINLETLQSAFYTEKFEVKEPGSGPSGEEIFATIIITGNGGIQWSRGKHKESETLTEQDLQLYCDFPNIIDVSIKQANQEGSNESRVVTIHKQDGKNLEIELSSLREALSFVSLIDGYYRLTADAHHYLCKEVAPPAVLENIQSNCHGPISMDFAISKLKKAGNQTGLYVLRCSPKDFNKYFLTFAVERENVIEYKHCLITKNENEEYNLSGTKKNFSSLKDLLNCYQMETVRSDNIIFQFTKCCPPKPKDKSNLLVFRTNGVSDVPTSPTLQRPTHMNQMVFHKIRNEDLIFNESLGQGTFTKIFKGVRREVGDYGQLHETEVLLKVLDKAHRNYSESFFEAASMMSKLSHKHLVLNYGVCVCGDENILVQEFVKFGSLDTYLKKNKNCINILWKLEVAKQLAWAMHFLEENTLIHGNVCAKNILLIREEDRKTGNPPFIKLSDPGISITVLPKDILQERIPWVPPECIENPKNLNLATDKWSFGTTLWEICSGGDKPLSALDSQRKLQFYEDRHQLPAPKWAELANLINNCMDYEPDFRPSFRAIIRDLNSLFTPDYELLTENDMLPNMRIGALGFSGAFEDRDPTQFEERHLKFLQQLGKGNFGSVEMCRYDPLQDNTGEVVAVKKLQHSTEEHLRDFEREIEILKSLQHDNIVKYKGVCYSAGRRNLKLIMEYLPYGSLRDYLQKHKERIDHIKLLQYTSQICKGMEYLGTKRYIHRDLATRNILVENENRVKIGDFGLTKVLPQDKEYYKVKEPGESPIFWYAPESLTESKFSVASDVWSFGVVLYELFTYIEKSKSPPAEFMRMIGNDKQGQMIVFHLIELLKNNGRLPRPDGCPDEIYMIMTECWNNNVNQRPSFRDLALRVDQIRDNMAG
As to `CC(C)N1CCN(c2ccc(Nc3cc(-c4c(F)cccc4F)nc4c3C(=O)NC4)nc2)CC1` [US10196390, Compound I-256], the Ki was less than 10 nM. The compound `O=C1NCc2nc(-c3c(F)cccc3F)nc(Nc3ccc(S(=O)(=O)C(F)(F)F)cc3)c21` [US10196390, Compound I-236] came in with a Ki of more than 1000 nM. Then `CCNC(=O)c1ccc(Nc2cc(-c3c(F)cccc3C#N)nc3c2C(=O)NC3)nc1` [US10196390, Compound I-282], with less than 10 nM; and `CN(c1ccc(Nc2cc(-c3c(F)cccc3F)nc3c2C(=O)NC3)nc1)C(C)(C)C` [US10196390, Compound I-274], with less than 10 nM. `Cc1ccc(Nc2nc(-c3c(F)cccc3F)nc3c2C(=O)NC3)cc1` [US10196390, Compound I-21]: the Ki was more than 1000 nM.

For the compound `COc1ccc(Nc2cc(-c3c(F)cccc3C#N)nc3c2C(=O)NC3)nc1` [US10196390, Compound I-258], the Ki is less than 10 nM. In turn, `C[C@@H]1COC[C@@H](C)N1C(=O)c1ccc(Nc2cc(-c3c(F)cccc3F)nc3c2C(=O)NC3)cc1` [US10196390, Compound I-285] returned a Ki of less than 10 nM. In the case of `CCN(CC)C(=O)c1ccc(Nc2cc(-c3c(F)cccc3F)nc3c2C(=O)NC3)cc1` [US10196390, Compound I-259], the Ki was less than 10 nM. `O=C1NCc2nc(-c3c(F)cccc3F)nc(Nc3ccc(C4CCCCC4)cc3)c21` [US10196390, Compound I-197] showed a Ki of more than 1000 nM. Consider `O=C1NCc2nc(-c3c(F)cccc3F)cc(Nc3ccc(C(=O)N4CCC(F)(F)CC4)cc3)c21` [US10196390, Compound I-283], for which the Ki was less than 10 nM. Then `CC1(C)CCC(=O)N1c1ccc(Nc2cc(-c3c(F)cccc3F)nc3c2C(=O)NC3)nc1` [US10196390, Compound I-272], with less than 10 nM; and `C[C@H]1COC[C@H](C)N1c1ccc(Nc2cc(-c3c(F)cccc3F)nc3c2C(=O)NC3)nc1` [US10196390, Compound I-264], with less than 10 nM; and `O=C1NCc2nc(-c3c(F)cccc3F)nc(Nc3ccc(OC(F)(F)F)cc3)c21` [US10196390, Compound I-184], with more than 1000 nM. `CC(C)(C)Nc1ccc(Nc2cc(-c3c(F)cccc3F)nc3c2C(=O)NC3)nc1` [US10196390, Compound I-278] returned a Ki of less than 10 nM.

As to `COC(=O)Cc1ncc(Nc2nc(-c3c(F)cccc3F)nc3c2C(=O)NC3)cn1` [US10196390, Compound I-166], the Ki was more than 1000 nM. In the case of `N#Cc1cccc(F)c1-c1cc(Nc2ccc(C(=O)N3CCOCC3)cc2)c2c(n1)CNC2=O` [US10196390, Compound I-287], the Ki is less than 10 nM. As for `O=C1NCc2nc(-c3c(F)cccc3F)cc(Nc3ccc(NS(=O)(=O)C(F)F)cn3)c21` [US10196390, Compound I-277], the Ki was less than 10 nM. `O=C1NCc2nc(-c3c(F)cccc3F)cc(Nc3ccc(F)cn3)c21` [US10196390, Compound I-234] gave a Ki of less than 10 nM. As to `CC1CC(O)CC(C)N1c1ccc(Nc2cc(-c3c(F)cccc3F)nc3c2C(=O)NC3)nc1` (stereo not drawn) [US10196390, Compound I-288], the Ki was less than 10 nM. `CCNC(=O)Cc1ncc(Nc2nc(-c3c(F)cccc3F)nc3c2C(=O)NC3)cn1` [US10196390, Compound I-169]: the Ki was more than 1000 nM.

For the compound `O=C1NCc2nc(-c3c(F)cccc3F)cc(Nc3ccc(N4CCC5(CC5)C4)cn3)c21` [US10196390, Compound I-233], the Ki is more than 1000 nM.

Regarding `Cc1ccc(Nc2nc(-c3c(F)cccc3F)nc3c2C(=O)NC3)cc1F` [US10196390, Compound I-292], the Ki is more than 1000 nM. For the compound `O=C1NCc2nc(-c3c(F)cccc3F)cc(Nc3ccc(N4CCCC4)cn3)c21` [US10196390, Compound I-205], the Ki was more than 1000 nM.
